Results as given in ChEMBL document CHEMBL1134662, “Selective, high affinity peptide antagonists of alpha-melanotropin action at human melanocortin receptor 4: their synthesis and biological evaluation in vitro” (J Med Chem, 2001).
Peptide text beside a SMILES is read from it.

Tests used:
[1] = target: T1, Melanocortin receptor 5 (Homo sapiens, UniProt P33032); assay: Increase in intracellular cAMP in CHO cells expressing human melanocortin receptor 5.; format: functional, cell-based
[2] = target: T1, Melanocortin receptor 5
Description: Binding affinity against human melanocortin receptor 5 (hMC5R) (concentration of the peptide at 50% specific binding)

[3] = target: Melanocortin receptor 4 (Homo sapiens, UniProt P32245)
Melanocortin receptor 4, sequence (P32245 whole entry): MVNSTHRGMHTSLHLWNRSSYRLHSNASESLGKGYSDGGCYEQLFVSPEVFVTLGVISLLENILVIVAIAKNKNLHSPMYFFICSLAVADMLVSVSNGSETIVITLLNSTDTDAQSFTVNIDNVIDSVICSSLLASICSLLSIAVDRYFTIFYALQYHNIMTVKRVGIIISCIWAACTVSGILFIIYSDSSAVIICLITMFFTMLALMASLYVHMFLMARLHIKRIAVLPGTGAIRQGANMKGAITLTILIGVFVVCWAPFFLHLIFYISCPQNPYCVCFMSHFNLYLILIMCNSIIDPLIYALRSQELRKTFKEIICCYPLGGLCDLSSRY
Description: Binding affinity against human melanocortin receptor 4 (hMC4R) (concentration of the peptide at 50% specific binding)

[4] = target: Melanocortin receptor 3 (Homo sapiens, UniProt P41968)
Melanocortin receptor 3, sequence (P41968 whole entry): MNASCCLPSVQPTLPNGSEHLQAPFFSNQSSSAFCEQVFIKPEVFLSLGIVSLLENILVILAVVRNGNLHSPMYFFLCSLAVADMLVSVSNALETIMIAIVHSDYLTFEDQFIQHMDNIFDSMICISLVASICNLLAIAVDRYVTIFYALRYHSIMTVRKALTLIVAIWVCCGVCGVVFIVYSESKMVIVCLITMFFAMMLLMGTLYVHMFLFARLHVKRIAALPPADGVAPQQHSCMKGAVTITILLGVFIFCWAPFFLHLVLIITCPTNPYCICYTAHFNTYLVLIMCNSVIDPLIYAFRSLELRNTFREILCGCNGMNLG
Description: Binding affinity against human melanocortin receptor 3 (hMC3R) (concentration of the peptide at 50% specific binding)

[5] = target: T1, Melanocortin receptor 5; assay: Signal transduction efficacy in cAMP assay in the CHO cells expressing human melanocortin receptor 5; format: functional, cell-based

T1 sequence (P33032 whole entry): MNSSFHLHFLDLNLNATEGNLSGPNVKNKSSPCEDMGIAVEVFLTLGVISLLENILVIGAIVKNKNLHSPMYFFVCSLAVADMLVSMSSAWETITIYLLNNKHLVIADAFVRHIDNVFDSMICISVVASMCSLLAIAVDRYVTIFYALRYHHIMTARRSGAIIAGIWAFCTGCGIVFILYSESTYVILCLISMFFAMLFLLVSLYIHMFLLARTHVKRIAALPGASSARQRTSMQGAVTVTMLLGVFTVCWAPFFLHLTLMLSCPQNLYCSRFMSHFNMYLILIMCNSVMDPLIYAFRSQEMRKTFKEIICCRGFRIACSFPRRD

Row | SMILES | EC50 [1] [µM] | Ki [2] [µM] | Ki [3] [µM] | Ki [4] [µM] | EC50 ([1]; cho) [µM] | Activation at 5 µM at 5nM [5] [%] | Inhibition at 10nM [5] [%]
1 | N=C(N)NCCC[C@@H]1NC(=O)[C@@H](Cc2ccc3ccccc3c2)NC(=O)[C@H](Cc2c[nH]cn2)NC(=O)CCC(=O)NC[C@@H](C(N)=O)NC(=O)[C@H](Cc2c[nH]c3ccccc23)NC1=O | 0.21 | 0.065 | 0.00026 | 0.029 | – | – | –
2 | CCC1CC(=O)N[C@H](Cc2ccc3ccccc3c2)C(=O)N[C@@H](CCCN=C(N)N)C(=O)N[C@@H](Cc2c[nH]c3ccccc23)C(=O)N[C@H](C(N)=O)CCCCNC1=O (stereo in doubt; 17) | – | 0.14 | 0.00058 | 0.12 | 0.24 | – | –
3 | N=C(N)NCCC[C@@H]1NC(=O)[C@@H](Cc2ccc3ccccc3c2)NCC(=O)CC[C@@H](C(N)=O)NC(=O)[C@H](Cc2c[nH]c3ccccc23)NC1=O | – | 5 | 0.96 | 5.9 | – | – | –
4 | N=C(N)NCCC[C@@H]1NC(=O)[C@@H](Cc2ccc3ccccc3c2)NC(=O)CCC(=O)NCC[C@@H](C(N)=O)NC(=O)[C@H](Cc2c[nH]c3ccccc23)NC1=O | – | 2.7 | 0.058 | 3 | – | – | –
5 | N=C(N)NCCC[C@@H]1NC(=O)[C@@H](Cc2ccc3ccccc3c2)NC(=O)[C@H](Cc2c[nH]cn2)NC(=O)CCC(=O)NCCCC[C@@H](C(N)=O)NC(=O)[C@H](Cc2c[nH]c3ccccc23)NC1=O | 0.17 | 0.15 | 0.00088 | 0.047 | – | – | –
6 | N=C(N)NCCC[C@@H]1NC(=O)[C@@H](Cc2ccc3ccccc3c2)NC(=O)[C@H](Cc2c[nH]cn2)NCC(=O)CC[C@@H](C(N)=O)NC(=O)[C@H](Cc2c[nH]c3ccccc23)NC1=O | – | 2.4 | 0.42 | 2.9 | > 5 | – | –
7 | N=C(N)NCCC[C@@H]1NC(=O)[C@@H](Cc2ccc3ccccc3c2)NC(=O)[C@@H](N)CC(=O)NCCCC[C@@H](C(N)=O)NC(=O)[C@H](Cc2c[nH]c3ccccc23)NC1=O | 0.2 | 0.024 | 0.004 | 0.42 | – | – | –
8 | N=C(N)NCCC[C@@H]1NC(=O)[C@@H](Cc2ccc3ccccc3c2)NC(=O)CCC(=O)NCCCC[C@H](C(N)=O)NC(=O)[C@H](Cc2c[nH]c3ccccc23)NC1=O | – | 4.9 | 3.8 | 5.9 | – | 7 | –
9 | CC(=O)N[C@H]1CSSC[C@@H](C(=O)N2CCC[C@H]2C(=O)N2CCC[C@H]2C(=O)N[C@@H](CCCCN)C(=O)N[C@@H](CC(=O)O)C(N)=O)NC(=O)CNC(=O)[C@H](Cc2c[nH]c3ccccc23)NC(=O)[C@H](CCCN=C(N)N)NC(=O)[C@@H](Cc2ccc(Cl)c(Cl)c2)NC(=O)[C@H](Cc2c[nH]cn2)NC(=O)[C@H](CCC(=O)O)NC1=O | 0.073 | 0.022 | 0.0022 | 0.02 | – | – | –
10 | N=C(N)NCCC[C@@H]1NC(=O)[C@@H](Cc2ccc3ccccc3c2)NC(=O)CCC(=O)NCCC[C@@H](C(N)=O)NC(=O)[C@H](Cc2c[nH]c3ccccc23)NC1=O | 0.3 | 0.13 | 0.00037 | 0.056 | – | – | –
11 | CC(=O)N[C@H]1CSSC[C@@H](C(=O)N2CCC[C@H]2C(=O)N2CCC[C@H]2C(=O)N[C@@H](CCCCN)C(=O)N[C@@H](CC(=O)O)C(N)=O)NC(=O)CNC(=O)[C@H](Cc2c[nH]c3ccccc23)NC(=O)[C@H](CCCNC(=N)N)NC(=O)[C@@H](Cc2ccc3ccccc3c2)NC(=O)[C@H](Cc2c[nH]cn2)NC(=O)[C@H](CCC(=O)O)NC1=O (HELM PEPTIDE1{[ac].C.E.H.[O=C([C@@H](Cc1ccc2ccccc2c1)N[*:1])[*:2]].R.W.G.C.P.P.K.D.[am]}$PEPTIDE1,PEPTIDE1,2:R3-9:R3$$$V2.0) | 0.042 | 0.016 | 0.0015 | 0.025 | – | – | –
12 | CCC1CC(=O)N[C@H](Cc2ccc3ccccc3c2)C(=O)N[C@@H](CCCN=C(N)N)C(=O)N[C@@H](Cc2c[nH]c3ccccc23)C(=O)N[C@H](C(N)=O)CCCCNC1=O (stereo in doubt; 18) | – | 0.4 | 0.0015 | 0.24 | 0.22 | – | –
13 | N=C(N)NCCC[C@@H]1NC(=O)[C@@H](Cc2ccc3ccccc3c2)NC(=O)CCC(=O)NCCCC[C@@H](C(N)=O)NC(=O)[C@H](Cc2c[nH]c3ccccc23)NC1=O | 0.53 | 0.54 | 0.0005 | 0.15 | – | – | –
14 | N=C(N)NCCC[C@@H]1NC(=O)[C@H](Cc2ccc3ccccc3c2)NC(=O)CCC(=O)NCC[C@H](C(N)=O)NC(=O)[C@@H](Cc2c[nH]c3ccccc23)NC1=O | – | – | – | – | – | 13 | –
15 | N=C(N)NCCC[C@@H]1NC(=O)[C@H](Cc2ccc3ccccc3c2)NC(=O)CCC(=O)NC2CCC(C(N)=O)N2C(=O)[C@@H](Cc2c[nH]c3ccccc23)NC1=O (stereo not given in full) | – | 2.5 | 0.6 | 3 | – | 3 | –
16 | N=C(N)NCCC[C@@H]1NC(=O)[C@@H](Cc2ccc3ccccc3c2)NC(=O)CCC(=O)NC[C@@H](C(N)=O)NC(=O)[C@H](Cc2c[nH]c3ccccc23)NC1=O | – | 4.8 | 0.11 | 1.5 | > 5 | – | –
17 | N=C(N)NCCC[C@@H]1NC(=O)[C@@H](Cc2ccc3ccccc3c2)NC(=O)CCC(=O)NCCCC[C@H](C(N)=O)NC(=O)[C@@H](Cc2c[nH]c3ccccc23)NC1=O | – | 4.9 | 1.3 | 5.9 | – | 0 | –
18 | CC(=O)N[C@H]1CC(=O)NCCCC[C@@H](C(N)=O)NC(=O)[C@H](Cc2c[nH]c3ccccc23)NC(=O)[C@H](CCCNC(=N)N)NC(=O)[C@@H](Cc2ccc3ccccc3c2)NC1=O | 1 | 0.72 | 0.0043 | 0.19 | – | – | –
19 | CC(=O)N[C@H]1CSSC[C@@H](C(N)=O)NC(=O)CNC(=O)[C@H](Cc2c[nH]c3ccccc23)NC(=O)[C@H](CCCN=C(N)N)NC(=O)[C@@H](Cc2ccc3ccccc3c2)NC(=O)[C@H](Cc2c[nH]cn2)NC(=O)[C@H](CCC(=O)O)NC1=O | – | 0.00039 | 0.00057 | 0.0026 | 0.00022 | – | –
20 | N=C(N)NCCC[C@@H]1NC(=O)[C@@H](Cc2ccc3ccccc3c2)NCC(=O)CC[C@H](C(N)=O)NC(=O)[C@@H](Cc2c[nH]c3ccccc23)NC1=O | – | – | – | – | – | – | 1
21 | N=C(N)NCCC[C@@H]1NC(=O)[C@@H](Cc2ccc3ccccc3c2)NC(=O)[C@H](Cc2cnc[nH]2)NC(=O)[C@@H](N)CC(=O)NCCCC[C@@H](C(N)=O)NC(=O)[C@H](Cc2c[nH]c3ccccc23)NC1=O | 0.018 | 0.018 | 0.0016 | 0.014 | – | – | –
22 | N=C(N)NCCC[C@H]1NC(=O)[C@@H](Cc2ccc3ccccc3c2)NC(=O)CCC(=O)NCCCC[C@H](C(N)=O)NC(=O)[C@@H](Cc2c[nH]c3ccccc23)NC1=O | – | 7 | 3.7 | 5.9 | – | 5 | –
